Patent US12534457B2, “Heteroaryl derivative compounds, and uses thereof” (Voronoi Inc., priority 2021, dated 2026)

tested on: Ba/F3 cells expressing EGFR Del19/C797S (EGFR DC); experiment: Proliferation inhibitory activity, Ba/F3 cells expressing EGFR Del19/C797S (CellTiter-Glo); assay type: cell-based; conditions: Mus musculus, BaF3, 72 hours of compound treatment
How it was run: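 Viability after 72 h of compound exposure was measured by luminescence (CellTiter-Glo) in Ba/F3 lines transduced with mutant EGFR. Final concentrations spanned 0.2 nM–5 μM over 12 threefold steps. Growth relative to untreated control gave GI50 values; each test was run three times.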

GI50 [nM]	SMILES
< 50	CN(C)[C@@H]1CCN(c2ccc(Nc3cc(N4OCC[C@@H]4c4ccccc4)ncn3)cc2)C1 [Example 69, N-(4-((R)-3-(dimethylamino)pyrrolidin-1-yl)phenyl)-6-((R)-3-phenylisoxazolidin-2-yl)pyrimidin-4-amine]
< 50	c1ccc([C@H]2CCON2c2cc(Nc3ccc4c(c3)CC[C@H](N3CCCC3)CC4)ncn2)cc1 [Example 83, 6-((R)-3-phenylisoxazolidin-2-yl)-N—((R)-7-(pyrrolidin-1-yl)-6,7,8,9-tetrahydro-5H-benzo[7]annulen-2-yl)pyrimidin-4-amine]
< 50	COc1cc(N2CCC(N3CCN(C)C[C@@H]3C)CC2)ccc1Nc1cc(N2OCC[C@@H]2c2cccc(F)c2F)ncn1 [Example 216, 6-((R)-3-(2,3-difluorophenyl)isoxazolidin-2-yl)-N-(4-(4-((S)-2,4-dimethylpiperazin-1-yl)piperidin-1-yl)-2-methoxyphenyl)pyrimidin-4-amine]
< 50	COc1cc(N2CCC(N3CCN(C)CC3)CC2)ccc1Nc1cc(N2OCC3(CC3)[C@@H]2c2ccccc2)ncn1 [Example 233, (S)—N-(2-methoxy-4-(4-(4-methylpiperazin-1-yl)piperidin-1-yl)phenyl)-6-(7-phenyl-5-oxa-6-azaspiro[2.4]heptan-6-yl)pyrimidin-4-amine]
< 50	CO/N=C(\C)c1cc(Nc2cc(N3OCC[C@@H]3c3cccc(F)c3F)ncn2)c(OC)cc1N1CCC(N2CCN(C)CC2)CC1 [Example 146, (R,E)-1-(5-((6-(3-(2,3-difluorophenyl)isoxazolidin-2-yl)pyrimidin-4-yl)amino)-4-methoxy-2-(4-(4-methylpiperazin-1-yl)piperidin-1-yl)phenyl)ethan-1-one O-methyl oxime]
< 50	CCc1cc(Nc2cc(N3OCC[C@@H]3c3cc(F)cc(F)c3)ncn2)c(OC)cc1N1CCC(N2CCN(C)CC2)CC1 [Example 25, (R)-6-(3-(3,5-difluorophenyl)isoxazolidin-2-yl)-N-(5-ethyl-2-methoxy-4-(4-(4-methylpiperazin-1-yl)piperidin-1-yl)phenyl)pyrimidin-4-amine]
< 50	CCc1cc(Nc2cc(N3OCC[C@@H]3c3cc(F)ccc3F)ncn2)c(OC)cc1N1CCC(N2CCN(C)CC2)CC1 [Example 94, (R)-6-(3-(2,5-difluorophenyl)isoxazolidin-2-yl)-N-(5-ethyl-2-methoxy-4-(4-(4-methylpiperazin-1-yl)piperidin-1-yl)phenyl)pyrimidin-4-amine]
50 to 500	COc1cc(N2CCC(N3CCN(C)CC3)CC2)ccc1Nc1cc(N2OCC[C@@H]2c2ccc3ccccc3c2)ncn1 [Example 89, (R)—N-(2-methoxy-4-(4-(4-methylpiperazin-1-yl)piperidin-1-yl)phenyl)-6-(3-(naphthalen-2-yl)isoxazolidin-2-yl)pyrimidin-4-amine]
< 50	COc1cc(N2CCC(N3CCN(CC4CC4)CC3)CC2)ccc1Nc1cc(N2OCC[C@@H]2c2cccc(F)c2F)ncn1 [Example 210, (R)—N-(4-(4-(4-(cyclopropylmethyl)piperazin-1-yl)piperidin-1-yl)-2-methoxyphenyl)-6-(3-(2,3-difluorophenyl)isoxazolidin-2-yl)pyrimidin-4-amine]
50 to 500	Cn1nccc1-c1ccc(Nc2cc(N3OCC[C@@H]3c3ccccc3)ncn2)c2c1OCCO2 [Example 80, (R)—N-(8-(1-methyl-1H-pyrazol-5-yl)-2,3-dihydrobenzo[b][1,4]dioxin-5-yl)-6-(3-phenylisoxazolidin-2-yl)pyrimidin-4-amine]
< 50	C#Cc1cc(Nc2cc(N3OCC[C@@H]3c3cccc(F)c3F)ncn2)c(OC)cc1N1CCN(C)CC1 [Example 200, (R)-6-(3-(2,3-difluorophenyl)isoxazolidin-2-yl)-N-(5-ethynyl-2-methoxy-4-(4-methylpiperazine-1-yl)phenyl)pyrimidin-4-amine]
< 50	COc1cc(N2CCC(N3C[C@H]4C[C@@H]3CO4)CC2)ccc1Nc1cc(N2OCC[C@@H]2c2ccccc2)ncn1 [Example 97, N-(4-(4-((1R,4R)-2-oxa-5-azabicyclo[2.2.1]heptan-5-yl)piperidin-1-yl)-2-methoxyphenyl)-6-((R)-3-phenylisoxazolidin-2-yl)pyrimidin-4-amine]
50 to 500	COc1cc(P2(=O)CCN(C3CC3)CC2)ccc1Nc1cc(N2OCC[C@@H]2c2ccccc2)ncn1 [Example 81, (R)-1-cyclopropyl-4-(3-methoxy-4-((6-(3-phenylisoxazolidin-2-yl)pyrimidin-4-yl)amino)phenyl)-1,4-azaphosphinane 4-oxide]
50 to 500	COc1cc(N2CCC(N3CCN(C)CC3)CC2)ccc1Nc1cc(N2OCC[C@@H]2c2cccc(C(F)(F)F)c2)ncn1 [Example 27, (R)—N-(2-methoxy-4-(4-(4-methylpiperazin-1-yl)piperidin-1-yl)phenyl)-6-(3-(3-(trifluoromethyl)phenyl)isoxazolidin-2-yl)pyrimidin-4-amine]
< 50	c1ccc([C@H]2CCON2c2cc(Nc3ccc4c(c3)CCNC4)ncn2)cc1 [Example 78, (R)—N-(6-(3-phenylisoxazolidin-2-yl)pyrimidin-4-yl)-1,2,3,4-tetrahydroisoquinolin-6-amine]
< 50	COc1cc(N2CCC(N3CCN(C)CC3)CC2)ccc1Nc1cc(N2OCC[C@@H]2c2cccs2)ncn1 [Example 35, (R)—N-(2-methoxy-4-(4-(4-methylpiperazin-1-yl)piperidin-1-yl)phenyl)-6-(3-(thiophen-2-yl)isoxazolidin-2-yl)pyrimidin-4-amine]
< 50	COc1cc(N2CCC(N3CCN(C)C[C@H]3C)CC2)ccc1Nc1cc(N2OCC[C@@H]2c2cccc(F)c2F)ncn1 [Example 217, 6-((R)-3-(2,3-difluorophenyl)isoxazolidin-2-yl)-N-(4-(4-((R)-2,4-dimethylpiperazin-1-yl)piperidin-1-yl)-2-methoxyphenyl)pyrimidin-4-amine]
< 50	COc1cc(N2CCC(N3CC4(CN(C)C4)C3)CC2)ccc1Nc1cc(N2OCC[C@@H]2c2cccc(F)c2F)ncn1 [Example 211, (R)-6-(3-(2,3-difluorophenyl)isoxazolidin-2-yl)-N-(2-methoxy-4-(4-(6-methyl-2,6-diazaspiro[3.3]heptan-2-yl)piperidin-1-yl)phenyl)pyrimidin-4-amine]
< 50	COc1cc(N2CCC(N3CCN(C)CC3)CC2)ccc1Nc1cc(N2OCC[C@@H]2c2cc(F)ccc2F)ncn1 [Example 30, (R)-6-(3-(2,5-difluorophenyl)isoxazolidin-2-yl)-N-(2-methoxy-4-(4-(4-methylpiperazin-1-yl)piperidin-1-yl)phenyl)pyrimidin-4-amine]
< 50	C[C@@H]1[C@@H](CS(C)(=O)=O)CN1c1cc(Nc2cc(N3OCC[C@@H]3c3cccc(F)c3F)ncn2)cc(-c2cnn(C)c2)c1N1CCOCC1 [Example 203, 6-((R)-3-(2,3-difluorophenyl)isoxazolidin-2-yl)-N-(3-(1-methyl-1H-pyrazol-4-yl)-5-((2R,3S)-2-methyl-3-((methylsulfonyl)methyl)azetidin-1-yl)-4-morpholinophenyl)pyrimidin-4-amine]
< 50	COc1cc(N2CCC(N(C)C)CC2)ccc1Nc1cc(N2OCC[C@@H]2c2ccccc2)ncn1 [Example 119, (R)—N-(4-(4-(dimethylamino)piperidin-1-yl)-2-methoxyphenyl)-6-(3-phenylisoxazolidin-2-yl)pyrimidin-4-amine]
50 to 500	COc1cc(N2CCC(N3CCN(C)CC3)CC2)ccc1Nc1cc(N2OCC[C@@H]2c2cccc(C(F)F)c2)ncn1 [Example 184, (R)-6-(3-(3-(difluoromethyl)phenyl)isoxazolidin-2-yl)-N-(2-methoxy-4-(4-(4-methylpiperazin-1-yl)piperidin-1-yl)phenyl)pyrimidin-4-amine]
< 50	CCN1CCN(C2CCN(c3ccc(Nc4cc(N5OCC[C@@H]5c5cccc(F)c5F)ncn4)c(OC)c3)CC2)CC1 [Example 207, (R)-6-(3-(2,3-difluorophenyl)isoxazolidin-2-yl)-N-(4-(4-(4-ethylpiperazin-1-yl)piperidin-1-yl)-2-methoxyphenyl)pyrimidin-4-amine]
50 to 500	COc1cc(N2CCC(N3CCN(C)CC3)CC2)ccc1Nc1cc(N2OCC[C@@H]2c2cccc(C(F)(F)F)c2F)ncn1 [Example 28, (R)-6-(3-(2-fluoro-3-(trifluoromethyl)phenyl)isoxazolidin-2-yl)-N-(2-methoxy-4-(4-(4-methylpiperazin-1-yl)piperidin-1-yl)phenyl)pyrimidin-4-amine]
< 50	CCC(=O)Nc1cc(Nc2cc(N3OCC[C@@H]3c3cc(F)cc(F)c3)ncn2)c(OC)cc1N1CCC(N2CCN(C3CC3)CC2)CC1 [Example 161, (R)—N-(2-(4-(4-cyclopropylpiperazin-1-yl)piperidin-1-yl)-5-((6-(3-(3,5-difluorophenyl)isoxazolidin-2-yl)pyrimidin-4-yl)amino)-4-methoxyphenyl)propionamide]
< 50	C=CCN1CCN(C2CCN(c3ccc(Nc4cc(N5OCC[C@@H]5c5cccc(F)c5F)ncn4)c(OC)c3)CC2)CC1 [Example 206, (R)—N-(4-(4-(4-allylpiperazin-1-yl)piperidin-1-yl)-2-methoxyphenyl)-6-(3-(2,3-difluorophenyl)isoxazolidin-2-yl)pyrimidin-4-amine]
< 50	CCN1[C@H](C)CN(C2CCN(c3ccc(Nc4cc(N5OCC[C@@H]5c5cccc(F)c5F)ncn4)c(OC)c3)CC2)C[C@@H]1C [Example 215, 6-((R)-3-(2,3-difluorophenyl)isoxazolidin-2-yl)-N-(4-(4-((3S,5R)-4-ethyl-3,5-dimethylpiperazin-1-yl)piperidin-1-yl)-2-methoxyphenyl)pyrimidin-4-amine]
50 to 500	CN1CCN(C(=O)c2ccc(Nc3cc(N4OCC[C@@H]4c4ccccc4)ncn3)cc2)CC1 [Example 72, (R)-(4-methylpiperazin-1-yl) (4-((6-(3-phenylisoxazolidin-2-yl)pyrimidin-4-yl)amino)phenyl)methanone]
